Data: US8044052B2, “Biaryl ether urea compounds” (Pfizer Inc., priority 2006, dated 2011)

Molecular target: T1, Human FAAH (Homo sapiens, UniProt O00519)
T1 construct: made in house
T1 sequence (O00519 1-579): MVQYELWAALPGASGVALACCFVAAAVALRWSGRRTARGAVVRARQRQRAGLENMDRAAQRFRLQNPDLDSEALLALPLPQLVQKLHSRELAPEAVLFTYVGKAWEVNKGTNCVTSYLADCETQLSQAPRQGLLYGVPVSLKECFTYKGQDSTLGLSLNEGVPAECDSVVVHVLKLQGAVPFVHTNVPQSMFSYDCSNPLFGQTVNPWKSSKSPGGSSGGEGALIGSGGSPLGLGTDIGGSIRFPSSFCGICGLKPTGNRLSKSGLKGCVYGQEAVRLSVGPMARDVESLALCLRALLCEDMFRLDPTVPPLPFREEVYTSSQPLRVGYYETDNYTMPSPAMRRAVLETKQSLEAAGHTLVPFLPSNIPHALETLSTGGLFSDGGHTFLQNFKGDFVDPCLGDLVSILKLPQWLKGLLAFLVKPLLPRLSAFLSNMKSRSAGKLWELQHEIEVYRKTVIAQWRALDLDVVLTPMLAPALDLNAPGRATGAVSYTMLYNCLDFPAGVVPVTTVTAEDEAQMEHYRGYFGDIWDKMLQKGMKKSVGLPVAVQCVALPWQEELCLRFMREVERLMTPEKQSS
Assay: FAAH assay (glutamate dehydrogenase-coupled, oleamide substrate, absorbance at 340 nm)
Type: biochemical
Conditions: irreversible inhibition, 1-4 nM FAAH, pH 7.4, 30° C., 90 min

Compound	hFAAH kinact/Ki [M⁻¹ s⁻¹]
O=C(Nc1cccnc1)N1CCC(=Cc2cccc(Oc3ccc(OCC(F)(F)F)cc3)c2)CC1 [Example 99, N-pyridin-{3-yl-4-3-[4-(2,2,2-trifluoroethoxy)phenoxy]benzylidene}piperidine-1-carboxamide]	1130

Same assay, conditions: irreversible inhibition, 1-4 nM FAAH, pH 7.4, 30° C., 90 min, read-out: hFAAH kinact/Ki

kinact/KI [M⁻¹ s⁻¹]	Compound
394	COc1ccc(Oc2cccc(C=C3CCN(C(=O)Nc4cccnn4)CC3)c2)c(C)n1 [Example 97, 4-{3-[(6-methoxy-2-methylpyridin-3-yl)oxy]benzylidene}-N-pyridazin-3-ylpiperidine-1-carboxamide]
2000	O=C(Nc1cccnn1)N1CCC(=Cc2cccc(Oc3ccc(OCC(F)(F)F)cc3)c2)CC1 [Example 100, N-pyridazin-3-yl-4-{3-[4-(2,2,2-trifluoroethoxy)phenoxy]benzylidene}piperidine-1-carboxamide]
209	COc1cccc2cnc(Oc3cccc(C=C4CCN(C(=O)Nc5cccnn5)CC4)c3)nc12 [Example 101, 4-{3-[(8-methoxyquinazolin-2-yl)oxy]benzylidene}-N-pyridazin-3-ylpiperidine-1-carboxamide]
1390	O=C(Nc1cccnn1)N1CCC(=Cc2cccc(Oc3ncc4cccnc4n3)c2)CC1 [Example 102, N-pyridazin-3-yl-4-[3-(pyrido[2,3-d]pyrimidin-2-yloxy)benzylidene]piperidine-1-carboxamide]
162	O=C(Nc1cccnn1)N1CCC(=Cc2cccc(Oc3ncccn3)c2)CC1 [Example 103, N-pyridazin-3-yl-4-[3-(pyrimidin-2-yloxy)benzylidene]piperidine-1-carboxamide]
105	COc1ccc(-c2cnc(Oc3cccc(C=C4CCN(C(=O)Nc5cccnn5)CC4)c3)nc2)cc1 [Example 104, 4-(3-{[5-(4-methoxyphenyl)pyrimidin-2-yl]oxy}benzylidene)-N-pyridazin-3-ylpiperidine-1-carboxamide]
2530	O=C(Nc1cccnn1)N1CCC(=Cc2cccc(Oc3ncc4ccccc4n3)c2)CC1 [Example 105, N-pyridazin-3-yl-4-[3-(quinazolin-2-yloxy)benzylidene]piperidine-1-carboxamide]
3330	O=C(Nc1cccnn1)N1CCC(=Cc2cccc(Oc3ncc(C4CC4)cn3)c2)CC1 [Example 106, 4-{3-[(5-cyclopropylpyrimidin-2-yl)oxy]benzylidene}-N-pyridazin-3-ylpiperidine-1-carboxamide]
6220	CCc1cnc(Oc2cccc(C=C3CCN(C(=O)Nc4cccnn4)CC3)c2)nc1 [Example 107, 4-{3-[(5-ethylpyrimidin-2-yl)oxy]benzylidene}-N-pyridazin-3-ylpiperidine-1-carboxamide]
1120	O=C(Nc1cccnn1)N1CCC(=Cc2cccc(Oc3ncc(F)cn3)c2)CC1 [Example 108, 4-{3-[(5-fluoropyrimidin-2-yl)oxy]benzylidene}-N-pyridazin-3-ylpiperidine-1-carboxamide]
1240	Cc1cnc(Oc2cccc(C=C3CCN(C(=O)Nc4cccnn4)CC3)c2)nc1 [Example 109, 4-{3-[(5-methylpyrimidin-2-yl)oxy]benzylidene}-N-pyridazin-3-ylpiperidine-1-carboxamide]
1020	O=C(Nc1cccnn1)N1CCC(=Cc2cccc(Oc3ncc(-c4cccc(Cl)c4)cn3)c2)CC1 [Example 110, 4-(3-{[5-(3-chlorophenyl)pyrimidin-2-yl]oxy}benzylidene)-N-pyridazin-3-ylpiperidine-1-carboxamide]
4240	CCCc1cnc(Oc2cccc(C=C3CCN(C(=O)Nc4cccnn4)CC3)c2)nc1 [Example 111, 4-{3-[(5-propylpyrimidin-2-yl)oxy]benzylidene}-N-pyridazin-3-ylpiperidine-1-carboxamide]
861	Cc1cnc(Oc2cccc(C=C3CCN(C(=O)Nc4cccnn4)CC3)c2)nc1C(C)C [Example 112, 4-{3-[(4-isopropyl-5-methylpyrimidin-2-yl)oxy]benzylidene}-N-pyridazin-3-ylpiperidine-1-carboxamide]
584	O=C(Nc1cccnn1)N1CCC(=Cc2cccc(Oc3nccc(C(F)(F)F)n3)c2)CC1 [Example 113, N-pyridazin-3-yl-4-(3-{[4-(trifluoromethyl)pyrimidin-2-yl]oxy}benzylidene)piperidine-1-carboxamide]
< 10	Cc1nc2c(c(Oc3cccc(C=C4CCN(C(=O)Nc5cccnn5)CC4)c3)n1)CCN(C)C2 [Example 114, 4-{3-[(2,7-dimethyl-5,6,7,8-tetrahydropyrido[3,4-d]pyrimidin-4-yl)oxy]benzylidene}-N-pyridazin-3-ylpiperidine-1-carboxamide]

kinact/KI [M⁻¹ s⁻¹]	Compound
< 11.2	CCc1cc(Oc2cccc(C=C3CCN(C(=O)Nc4cccnn4)CC3)c2)nc(C(F)(F)F)n1 [Example 115, 4-(3-{[6-ethyl-2-(trifluoromethyl)pyrimidin-4-yl]oxy}benzylidene)-N-pyridazin-3-ylpiperidine-1-carboxamide]
40.8	Cc1cc(C(F)(F)F)cc(Oc2cccc(C=C3CCN(C(=O)Nc4cccnn4)CC3)c2)n1 [Example 116, 4-(3-{[6-methyl-4-(trifluoromethyl)pyridin-2-yl]oxy}benzylidene)-N-pyridazin-3-ylpiperidine-1-carboxamide]
< 12.4	O=C(Nc1cccnn1)N1CCC(=Cc2cccc(Oc3ccc(C(=O)N4CCOCC4)cn3)c2)CC1 [Example 117, 4-(3-{[5-(morpholin-4-ylcarbonyl)pyridin-2-yl]oxy}benzylidene)-N-pyridazin-3-ylpiperidine-1-carboxamide]
191	Cc1nccnc1Oc1cccc(C=C2CCN(C(=O)Nc3cccnn3)CC2)c1 [Example 118, 4-{3-[(3-methylpyrazin-2-yl)oxy]benzylidene}-N-pyridazin-3-ylpiperidine-1-carboxamide]
77.7	Cc1nnc(Oc2cccc(C=C3CCN(C(=O)Nc4cccnn4)CC3)c2)c2ccccc12 [Example 119, 4-{3-[(4-methylphthalazin-1-yl)oxy]benzylidene}-N-pyridazin-3-ylpiperidine-1-carboxamide]
< 14.5	Cc1cc(C)nc(Oc2cccc(C=C3CCN(C(=O)Nc4cccnn4)CC3)c2)n1 [Example 120, 4-{3-[(4,6-dimethylpyrimidin-2-yl)oxy]benzylidene}-N-pyridazin-3-ylpiperidine-1-carboxamide]
896	COc1cc(Oc2cccc(C=C3CCN(C(=O)Nc4cccnn4)CC3)c2)ncn1 [Example 121, 4-{3-[(6-methoxypyrimidin-4-yl)oxy]benzylidene}-N-pyridazin-3-ylpiperidine-1-carboxamide]
909	O=C(Nc1cccnn1)N1CCC(=Cc2cccc(Oc3cnc4ccccc4n3)c2)CC1 [Example 122, N-pyridazin-3-yl-4-[3-(quinoxalin-2-yloxy)benzylidene]piperidine-1-carboxamide]
203	O=C(Nc1cccnn1)N1CCC(=Cc2cccc(Oc3cnccn3)c2)CC1 [Example 123, 4-[3-(pyrazin-2-yloxy)benzylidene]-N-pyridazin-3-ylpiperidine-1-carboxamide]
7400	O=C(Nc1cccnn1)N1CCC(=Cc2cccc(Oc3nc4ccccc4s3)c2)CC1 [Example 124, 4-[3-(1,3-benzothiazol-2-yloxy)benzylidene]-N-pyridazin-3-ylpiperidine-1-carboxamide]
140	O=C(Nc1cccnn1)N1CCC(=Cc2cccc(Oc3nc(-c4ccccc4)ns3)c2)CC1 [Example 125, 4-{3-[(3-phenyl-1,2,4-thiadiazol-5-yl)oxy]benzylidene}-N-pyridazin-3-ylpiperidine-1-carboxamide]
405	O=C(Nc1ccc(C(F)(F)F)nc1)N1CCC(=Cc2cccc(Oc3ccc(C(F)(F)F)cn3)c2)CC1 [Example 126, N-[6-(trifluoromethyl)pyridin-3-yl]-4-(3-{[5-(trifluoromethyl)pyridin-2-yl]oxy}benzylidene)piperidine-1-carboxamide]
675	COc1ccc(NC(=O)N2CCC(=Cc3cccc(Oc4ccc(C(F)(F)F)cn4)c3)CC2)c(OC)n1 [Example 127, N-(2,6-dimethoxypyridin-3-yl)-4-(3-{[5-(trifluoromethyl)pyridin-2-yl]oxy}benzylidene)piperidine-1-carboxamide]
1300	O=C(Nc1ccc(Oc2cccnc2)nc1)N1CCC(=Cc2cccc(Oc3ccc(C(F)(F)F)cn3)c2)CC1 [Example 128, N-[6-(pyridin-3-yloxy)pyridin-3-yl]-4-(3-{[5-(trifluoromethyl)pyridin-2-yl]oxy}benzylidene)piperidine-1-carboxamide]
1730	COc1ncccc1NC(=O)N1CCC(=Cc2cccc(Oc3ccc(C(F)(F)F)cn3)c2)CC1 [Example 129, N-(2-methoxypyridin-3-yl)-4-(3-{[5-(trifluoromethyl)pyridin-2-yl]oxy}benzylidene)piperidine-1-carboxamide]
944	COc1cncc(NC(=O)N2CCC(=Cc3cccc(Oc4ccc(C(F)(F)F)cn4)c3)CC2)c1 [Example 130, N-(5-methoxypyridin-3-yl)-4-(3-{[5-(trifluoromethyl)pyridin-2-yl]oxy}benzylidene)piperidine-1-carboxamide]
